Here are results for three compounds from US20040132740A1, “Novel antibiotics” (priority 2001, published 2004).

As usually defined, the melting point is the temperature, or range, at which the solid turns liquid. One may read the LD50 as the dose at which mortality reaches 50%. A word on the MIC: it is the lowest concentration that inhibits growth of the organism.

Molecules are shown by their SMILES. Where a name gives a salt, the structure may show the parent alone.

In series [1] the test system is gram-positive and gram-negative organisms. The series is described as follows: Antibacterial effect compared with ciprofloxacin hydrochloride under the same experimental conditions. In kind it is cell-based, E. coli and St. aureus. Conditions: hydrochloride salt. As for the experimental part:
(§1) An aqueous solution of the salts of the compounds reported in this invention namely compound (A) and compound (B) were tested in vitro against E. coli and St. aureus according to an established clinical procedure (Mackie and McCartney: Practical Medical Microbiology, Churchill livingstone, 1996, 14th edition, p159-163).

A short description of series [2]: LD50 on mice. To be noted: mouse, in vivo.
Series [3] relates to Pseudomones aeruginose. The series is described as follows: MIC / effective maintenance dose to control bacterial re-growth, clinically isolated Pseudomones aeruginose. To be noted: clinically isolated microorganism. Format: cell-based. As to the method: (§2) The minimum inhibitory concentration (MIC) of compound (A) and ciprofloxacin were also studied using clinically isolated microorganism staphylococcus aureus and pseudomotias aeruginose.
(§3) The experimental work was carried out according to an established clinical procedure […] (Mackie and McCartney, ibid).

Series [4] concerns St. aureus. Kind of series: Minimum inhibitory concentration in vitro against St. aureus. Format: cell-based. Conditions: Staphylococcus aureus, aqueous solution of hydrochloride salts. As to the method:
as §1

The subject of series [5] is E. coli. The series is described as follows: Minimum inhibitory concentration in vitro against E. coli. Format: cell-based. To be noted: Escherichia coli, aqueous solution of hydrochloride salts. As to the method:
as §1

Series [6] has as its system bacteria. Kind of series: Further incubation of the positive samples for up to 16 hours (bacterial re-growth). In kind it is cell-based. As to the method:
as §3

Series [7] relates to Staphylococcus aureus. The series is described as follows: MIC / effective maintenance dose to control bacterial re-growth, clinically isolated Staphylococcus aureus. Conditions: clinically isolated microorganism, read-out: effective maintenance dose necessary to control bacterial re-growth (MIC), Staphylococcus aureus. In kind it is cell-based. As to the method: as §2, §3

As for `CN1CCN(c2cc3c(cc2F)c(=O)ccn3C2CC2)CC1` [Compound (B), 1-cyclopropyl-6-fluoro-1,4-dihydro-4-oxo-7-(1-(4-methyl)piperazinyl)-quinoline], the “antibacterial effect towards gram-positive and gram-negative organisms” value in series [1] is reported as “better antibacterial effect”.

Turning to `CN1CCN(c2cc3c(cc2F)c(=O)ccn3C2CC2)CC1` (as salt: hydrochloride) [Compound (B), 1-cyclopropyl-6-fluoro-1,4-dihydro-4-oxo-7-(1-(4-methyl)piperazinyl)-quinoline], the melting point is 238 to 240 °C.

As for `O=c1ccn(C2CC2)c2cc(N3CCNCC3)c(F)cc12` [Compound (A) HCl salt, 1-cyclopropyl-6-fluoro-1,4-dihydro-4-oxo-7(1-piperazinyl)-quinoline], the LD50 in series [2] came to 28 mg/kg. Besides, in series [3], the “effective maintenance dose necessary to control bacterial re-growth (MIC), Pseudomones aeruginose” value stood at 0.05 µg/mL. The minimum inhibitory concentration (MIC) in series [4] amounted to 0.08 µg/mL; in series [5], 0.01 µg/mL; in series [7], 0.06 µg/mL. For the same compound, in series [6] (compared with ciprofloxacin hydrochloride), the “sensitivity and effectiveness as antibacterial agent” value was “more sensitive and effective”. Further, the “bacterial growth after further incubation of the positive samples” value in series [6] (incubation up to 16 hours, dose of 0.0 μg/ml printed for compound (A)) was “very slow bacterial growth”. The “antibacterial effect towards gram-positive and gram-negative organisms” value in series [1] is on record as “better antibacterial effect”.
